Counter-ions that a name gives are not always drawn.

Consider 29 compounds from patent publication US11149018B2, “Substituted N-arylethyl-2-aminoquinoline-4-carboxamides and use thereof” (Bayer Aktiengesellschaft, priority 2017, dated 2021).

For this assay, the target named is FP receptor (Homo sapiens (Human), UniProt P43088). Put plainly: In vitro test of inhibition of human FP receptor activity (PGF2α-induced calcium flux in FP-expressing CHEM1 cells). It is filed as cell-based. The settings on record: PGF2α 2 nM, some mean values of multiple determinations. The method in brief:
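FP antagonism in FP-expressing CHEM1 cells loaded with Fluo-8. Compound preincubated 10 min at 37° C, then receptor stimulated with 2 nM (final) PGF2α in calcium-free Tyrode with 2 mM CaCl2.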

FP receptor, sequence (P43088 whole entry): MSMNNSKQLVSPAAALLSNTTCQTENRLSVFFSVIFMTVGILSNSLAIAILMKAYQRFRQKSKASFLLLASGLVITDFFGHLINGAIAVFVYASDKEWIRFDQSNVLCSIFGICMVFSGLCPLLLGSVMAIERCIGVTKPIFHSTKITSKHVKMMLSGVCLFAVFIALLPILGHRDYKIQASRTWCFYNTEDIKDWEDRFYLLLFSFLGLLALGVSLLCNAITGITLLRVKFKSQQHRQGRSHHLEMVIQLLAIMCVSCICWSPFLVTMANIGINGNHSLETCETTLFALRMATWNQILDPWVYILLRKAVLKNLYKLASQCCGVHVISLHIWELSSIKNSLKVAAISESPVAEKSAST

On to `Cc1c(N2CCCC2)nc2ccc(Br)cc2c1C(=O)NCC(CCC(=O)O)c1cc(F)ccc1F` (single isomer, unassigned; (-)) [Example 260, (−)-5-({[6-Bromo-3-methyl-2-(pyrrolidin-1-yl)quinolin-4-yl]carbonyl}amino)-4-(2,5-difluorophenyl)pentanoic acid], for which the IC50 was found to be 29 nM.
As for `Cc1c(N2CCCC2)nc2ccc(Br)cc2c1C(=O)NCC(CCC(=O)O)c1c(F)ccc(F)c1Cl` (single isomer, unassigned; (-)) [Example 216, (−)-5-({[6-Bromo-3-methyl-2-(pyrrolidin-1-yl)quinolin-4-yl]carbonyl}amino)-4-(2-chloro-3,6-difluorophenyl)pentanoic acid], the figure is 2.9 nM; as for `Cc1c(N2CCC[C@H]2C)nc2ccc(Br)cc2c1C(=O)NCC(CCC(=O)O)c1ccccc1Cl` (single isomer, unassigned; (+)) [Example 83], 6.4 nM.
For `Cc1c(NCC2CC2)nc2ccc(Br)cc2c1C(=O)NCC(CCC(=O)O)c1ccccc1Cl` (racemic) [Example 100, (+/−)-5-[({6-Bromo-2-[(cyclopropylmethyl)amino]-3-methylquinolin-4-yl}carbonyl)amino]-4-(2-chlorophenyl)pentanoic acid], the IC50 was 340 nM.
For `Cc1c(N2CCCC(C)C2)nc2ccc(Br)cc2c1C(=O)NCC(CCC(=O)O)c1ccccc1OC(F)(F)F` (single isomer, unassigned; (-)) [Example 209, (−)-5-[({6-Bromo-3-methyl-2-[3-methylpiperidin-1-yl]quinolin-4-yl}carbonyl)amino]-4-[2-(trifluoromethoxy)phenyl]pentanoic acid], the IC50 is 7 nM.
Turning to `Cc1c(N2CCCC2)nc2ccc(Br)cc2c1C(=O)NCC(CCC(=O)O)c1c(Cl)ccc(Cl)c1Cl` (single isomer, unassigned; (-)) [Example 176, formate], the IC50 amounted to 7.8 nM.
Consider `CCC1CCCN(c2nc3ccc(Br)cc3c(C(=O)NCC(CCC(=O)O)c3cc(F)ccc3F)c2C)C1` (racemic) [Example 226, (−)-5-[({6-Bromo-2-[3-ethylpiperidin-1-yl]-3-methylquinolin-4-yl}carbonyl)amino]-4-(2,5-difluorophenyl)pentanoic acid], for which the IC50 was 1.8 nM.
As to `CCNc1nc2ccc(Br)cc2c(C(=O)NCC(CCC(=O)O)c2ccccc2Cl)c1C` (racemic) [Example 109, (+/−)-5-({[6-Bromo-2-(ethylamino)-3-methylquinolin-4-yl]carbonyl}amino)-4-(2-chlorophenyl)pentanoic acid], the IC50 was 860 nM.
`Cc1c(N2CNC(=O)C2)nc2ccc(Br)cc2c1C(=O)NCC(CCC(=O)O)c1ccccc1Cl` (racemic) [Example 88, (+/−)-5-({[6-Bromo-3-methyl-2-(4-oxoimidazolidin-1-yl)quinolin-4-yl]carbonyl}amino)-4-(2-chlorophenyl)pentanoic acid]: the 50% inhibitory concentration (IC50) came out at 880 nM.
Consider `Cc1c(N2CCCCCC2)nc2ccc(Br)cc2c1C(=O)NCC(CCC(=O)O)c1c(F)ccc(F)c1Cl` (single isomer, unassigned) [Example 220, 5-({[2-(Azepan-1-yl)-6-bromo-3-methylquinolin-4-yl]carbonyl}amino)-4-(2-chloro-3,6-difluorophenyl)pentanoic acid], for which the IC50 is 0.76 nM.
Under `Cc1c(N2CCCC2)nc2ccc(Br)cc2c1C(=O)NCC(CCC(=O)O)c1ccccc1C(F)(F)F` (single isomer, unassigned; (-)) [Example 280, (−)-5-[({6-Bromo-3-methyl-2-[(^2H8)pyrrolidin-1-yl]quinolin-4-yl}carbonyl)amino]-4-[2-(trifluoromethyl)phenyl]pentanoic acid] stands 2.4 nM.
On to `COc1ccccc1C(CCC(=O)O)CNC(=O)c1c(C)c(N2CCCCC2)nc2ccc(Br)cc12` (single isomer, unassigned; (+)) [Example 235, (+)-5-({[6-Bromo-3-methyl-2-(piperidin-1-yl)quinolin-4-yl]carbonyl}amino)-4-(2-methoxyphenyl)pentanoic acid], for which the IC50 was 1.4 nM.
Consider `CCC1CCCN(c2nc3ccc(Br)cc3c(C(=O)NCC(CCC(=O)O)c3c(F)ccc(F)c3Cl)c2C)C1` (centres unmarked) [Example 158, 5-[({6-Bromo-2-[3-ethylpiperidin-1-yl]-3-methylquinolin-4-yl}carbonyl)amino]-4-(2-chloro-3,6-difluorophenyl)pentanoic acid], for which the IC50 amounted to 1.6 nM.
Consider `Cc1c(N2CCCC(C)C2)nc2ccc(Br)cc2c1C(=O)NCC(CCC(=O)O)c1ccccc1Cl` (single isomer, unassigned; (+)) [Example 47, (+)-5-[({6-Bromo-3-methyl-2-[3-methylpiperidin-1-yl]quinolin-4-yl}carbonyl)amino]-4-(2-chlorophenyl)pentanoic acid], for which the IC50 was determined as 14 nM.
In the case of `Cc1c(N2CC=CC2)nc2ccc(Br)cc2c1C(=O)NCC(CCC(=O)O)c1cc(F)ccc1Cl` (racemic) [Example 15, (+/−)-5-({[6-Bromo-2-(2,5-dihydro-1H-pyrrol-1-yl)-3-methylquinolin-4-yl]carbonyl}amino)-4-(2-chloro-5-fluorophenyl)pentanoic acid], the IC50 was 48 nM.
With `COc1ccccc1C(CCC(=O)O)CNC(=O)c1c(C)c(N2CCCC2)nc2ccc(Br)cc12` (single isomer, unassigned; (+)) [Example 237, (+)-5-({[6-Bromo-3-methyl-2-(pyrrolidin-1-yl)quinolin-4-yl]carbonyl}amino)-4-(2-methoxyphenyl)pentanoic acid], the IC50 was 4.3 nM.
Regarding `Cc1ccc(F)cc1C(CCC(=O)O)CNC(=O)c1c(C)c(N2CCCC(F)(F)C2)nc2ccc(Br)cc12` (racemic) [Example 150, (+/−)-5-({[6-Bromo-2-(3,3-difluoropiperidin-1-yl)-3-methylquinolin-4-yl]carbonyl}amino)-4-(5-fluoro-2-methylphenyl)pentanoic acid], the half-maximal inhibitory concentration (IC50) was found to be 22 nM.
Take `COc1ccccc1C(CCC(=O)O)CNC(=O)c1c(C)c(N2CCCCCC2)nc2ccc(Br)cc12` (single isomer, unassigned; (-)) [Example 240, (−)-5-({[2-(Azepan-1-yl)-6-bromo-3-methylquinolin-4-yl]carbonyl}amino)-4-(2-methoxyphenyl)pentanoic acid]: the IC50 was 16 nM.
With `Cc1c(N2CCCC3(CC3)C2)nc2ccc(Br)cc2c1C(=O)NCC(CCC(=O)O)c1ccccc1Cl` (racemic) [Example 110, (+/−)-5-({[2-(5-Azaspiro[2.5]oct-5-yl)-6-bromo-3-methylquinolin-4-yl]carbonyl}amino)-4-(2-chlorophenyl)pentanoic acid], the IC50 was determined as 24 nM.
`CCC1CCCN(c2nc3ccc(Br)cc3c(C(=O)NCC(CCC(=O)O)c3ccccc3Cl)c2C)C1` (single isomer, unassigned; (-)) [Example 59, (−)-5-[({6-Bromo-2-[3-ethylpiperidin-1-yl]-3-methylquinolin-4-yl}carbonyl)amino]-4-(2-chlorophenyl)pentanoic acid]: the IC50 worked out at 11 nM.
Regarding `Cc1c(N2CCCC(C)C2)nc2ccc(Br)cc2c1C(=O)NCC(CCC(=O)O)c1ccccc1C(F)(F)F` (centres unmarked) [Example 125, 5-[({6-Bromo-3-methyl-2-[3-methylpiperidin-1-yl]quinolin-4-yl}carbonyl)amino]-4-[2-(trifluoromethyl)phenyl]pentanoic acid], the half-maximal inhibitory concentration (IC50) stood at 5.2 nM.
For the compound `Cc1ccc(F)cc1C(CCC(=O)O)CNC(=O)c1c(C)c(N2CCCCC2)nc2ccc(Br)cc12` (racemic) [Example 147, (+/−)-5-({[6-Bromo-3-methyl-2-(piperidin-1-yl)quinolin-4-yl]carbonyl}amino)-4-(5-fluoro-2-methylphenyl)pentanoic acid], the IC50 came out at 8 nM.
For `Cc1c(N2CCCC(F)C2)nc2ccc(Br)cc2c1C(=O)NCC(CCC(=O)O)c1c(F)cccc1F` (centres unmarked) [Example 253, 5-[({6-Bromo-2-(3-fluoropiperidin-1-yl)-3-methylquinolin-4-yl}carbonyl)amino]-4-(2,6-difluorophenyl)pentanoic acid], the IC50 worked out at 25 nM.
`Cc1c(N2CCCC(F)C2)nc2ccc(Br)cc2c1C(=O)NCC(CCC(=O)O)c1ccccc1Cl` (single isomer, unassigned; (-)) [Example 185, (−)-5-[({6-Bromo-2-[3-fluoropiperidin-1-yl]-3-methylquinolin-4-yl}carbonyl)amino]-4-(2-chlorophenyl)pentanoic acid]: the IC50 turned out to be 4 nM.
As to `Cc1c(N2CCCC(F)(F)C2)nc2ccc(Br)cc2c1C(=O)NCC(CCC(=O)O)c1c(Cl)cccc1Cl` (single isomer, unassigned; (-)) [Example 265, (−)-5-({[6-Bromo-2-(3,3-difluoropiperidin-1-yl)-3-methylquinolin-4-yl]carbonyl}amino)-4-(2,6-dichlorophenyl)pentanoic acid], the IC50 was found to be 13 nM.
For `Cc1ccccc1C(CCC(=O)O)CNC(=O)c1c(C)c(N2CCCC(F)(F)C2)nc2ccc(Br)cc12` (single isomer, unassigned; (-)) [Example 230, (−)-5-({[6-Bromo-2-(3,3-difluoropiperidin-1-yl)-3-methylquinolin-4-yl]carbonyl}amino)-4-(2-methylphenyl)pentanoic acid], the IC50 worked out at 12 nM.
`[2H]C1([2H])N(c2nc3ccc(Br)cc3c(C(=O)NCC(CCC(=O)O)c3ccccc3C(F)(F)F)c2C)C([2H])([2H])C([2H])([2H])C([2H])([2H])C1([2H])[2H]` (single isomer, unassigned; (-)) [Example 269, (−)-5-[({6-Bromo-3-methyl-2-[(^2H10)piperidin-1-yl]quinolin-4-yl}carbonyl)amino]-4-[2-(trifluoromethyl)phenyl]pentanoic acid]: the IC50 is 2.8 nM.
On to `Cc1c(N2CCC[C@@H]2C)nc2ccc(Br)cc2c1C(=O)NCC(CCC(=O)O)c1ccccc1Cl` (single isomer, unassigned; (-)) [Example 81], for which the IC50 came to 180 nM.
With `Cc1c(N2CCCCCC2)nc2ccc(Br)cc2c1C(=O)NCC(CCC(=O)O)c1ccccc1OC(F)(F)F` (racemic) [Example 135, (+/−)-5-({[2-(Azepan-1-yl)-6-bromo-3-methylquinolin-4-yl]carbonyl}amino)-4-[2-(trifluoromethoxy)phenyl]pentanoic acid], the IC50 was found to be 3 nM.
